We go through five molecules from patent US6562855B1, “Anaesthetic formulation comprising an NMDA-antagoinst and an alpha-2 adrenergic agonist” (priority 1999, dated 2003).

In series [1] the test system is Male Sprague-Dawley rats. Description: Loss of righting reflex (sleep-time), hypnotic response to dexmedetomidine. It is filed as in vivo, rat. The note with it: for effect of co-administration on induction of tolerance to the hypnotic effect of dexmedetomidine: NO2-arginine 0.4-4 μg/kg/hr with dexmedetomidine 5 μg/kg/hr for 7 days (FIG. 5C); for effect of co-administration on development of tolerance to the hypnotic effect of dexmedetomidine: MK-801 100 and 400 μg/kg/hr co-administered with dexmedetomidine, challenge 100 μg/kg i.p., pumps removed 1 day prior to testing (FIG. 2C). How it is done: (§1) The experimental protocol was approved by the Animal Care and Use Committee of the Veterans Affairs Palo Alto Health Care System. Male Sprague-Dawley rats, (B&K, Fremont, Calif.) weighing 250-350 g were used. The rats were stratified to match the distribution of the weights in the groups as closely as possible. All tests were performed between 10 a.m. and 4 p.m. The number of animals for each experiment is listed in the legends.
(§2) Rats were made tolerant to the anesthetic action of an alpha-2 agonist, dexmedetomidine, as described by Reid K et al (ibid). Briefly, rats were administered dexmedetomidine chronically using Alzet® osmotic minipumps (Model 2002 or 1007D, Alza, Palo Alto Calif.), which discharge their contents at a mean pumping rate of 0.48±0.02 μl/h. The pumps were inserted subcutaneously during isoflurane anesthesia in the dorsal thoracic region and loaded to deliver 5 μg/kg/h for 7 days to induce hypnotic tolerance and 10 μg/kg/h for 14 days to induce analgesic tolerance. […] When MK-801 or Nω-nitro-L-arginine (NO2-arginine) was co-administered with dexmedetomidine the MK-801 was included in the same pump. […] For the MK-801 and Nω-nitro-L-arginine (NO2-arginine) hypnotic experiments the pumps were removed one day prior to behavioral testing. In all other experiments the pumps were not removed prior to testing.
Hypnotic response to dexmedetomidine, was defined by the loss of the rat's righting reflex (LORR), and its duration was measured in minutes and referred to as sleep-time. The duration of the LORR was assessed as the time from the rat's inability to right itself when placed on its back until the time that it spontaneously reverted, completely, to the prone position. The hypnotic response test was performed between 10 a.m. and 6 p.m. as described in Reid et al, 1994.
(§3) The NOS inhibitor Nω-nitro-L-arginine (NO2-arginine) (Sigma) and the NMDA antagonists MK-801 (RBI) and ketamine (Sigma) were diluted in normal saline and acutely administered intraperitoneally or administered chronically by means of Alzet® osmotic minipumps (Model 2002 or 1007D, Alza, Palo Alto Calif.). These compounds were co-administered with dexmedetomidine by including both drugs in one pump.
(§4) LORR and tail flick data was analyzed using the analysis of variance (ANOVA) followed by post hoc Bonferroni tests or Dunnett's multiple comparison test or t-test where appropriate.

Series [2] concerns Male Sprague-Dawley rats. The series can be described thus: Tail flick response to a noxious thermal stimulus (analgesic action of dexmedetomidine). Type of series: in vivo, rat. The note with it: for effect of acute administration on the analgesic action of dexmedetomidine: tail flick 40 min later. As to the method: as §1, §2
Nociceptive response was assessed by the tail flick response to a noxious thermal stimulus 40 minutes after the administration of the dexmedetomidine challenge dose. A high intensity light beam focused on the tail and the time for the rat to move its tail out of the light was recorded as tail flick latency. This method has been described previously in the literature (Guo T Z et al, ibid). The latencies from three sites on the tail were averaged. A cut-off time of 10 sec was predetermined to prevent tissue damage. Baseline measurements consist of a set of three tail flick determinations at 2 min intervals.
as §3, §4

The next series concerns NMDA receptor. The note with it: 80% xenon; cultured hippocampal neurons; cited from earlier work.
For series [3] the following is noted: 20° C. and normal pressure; cited from earlier work.
The test system of series [4] is Male Sprague-Dawley rats. The note with it: previously demonstrated (Guo T Z et al); cited from earlier work.
The mark [5] stands for this setting: chronic exposure to dexmedetomidine for 14 days (10 μg/kg/h) (FIG. 1B).

“Also recorded” adds a separate entry of the source.

With `N=C(NCCC[C@H](N)C(=O)O)N[N+](=O)[O-]` [NO2-arginine, Nω-nitro-L-arginine], the “effect of co-administration on induction of tolerance to the hypnotic effect of dexmedetomidine” value is “dose-dependently blocks the development of tolerance; also recorded: attenuated” in the series with Male Sprague-Dawley rats [1] and “blocked” in the series on Male Sprague-Dawley rats [1] (listed as NO2-Arginine). In addition, the “effect of acute administration on dexmedetomidine-induced sleep time” value in the series on Male Sprague-Dawley rats [1] (NO2-arginine 15 min prior to dexmedetomidine 100 μg/kg i.p., drug naive rats (FIG. 5A)) is given as “dependently increases the dexmedetomidine-induced sleep time; also recorded: increased sleep time only at high doses”. Further, the “effect of acute administration on expression of tolerance to the hypnotic effect of dexmedetomidine” value was “does not reverse the tolerance; also recorded: did not reverse its expression” with Male Sprague-Dawley rats [1] (low doses of NO2-arginine acute, after 7-day dexmedetomidine, challenge 100 μg/kg (FIG. 5B)) and “does not prevent the expression of tolerance” in the series on Male Sprague-Dawley rats [1] (low doses of NO2-arginine acute, after 7-day dexmedetomidine, challenge 100 μg/kg (FIG. 5B), listed as NO2-Arginine). Further, in the series on Male Sprague-Dawley rats [1] (treatment with just NO2-arginine 1.25 μg/kg/hr (FIG. 5C, last column)), the “effect on dexmedetomidine-induced sleep time when given alone” value is “does not affect the dexmedetomidine-induced sleep time; also recorded: did not affect the dexmedetomidine sleep time”. The “effect on dexmedetomidine-induced analgesia in control animals” value in the series with Male Sprague-Dawley rats [2] (NO2-arginine 4 μg/kg/hr (FIG. 6C)) is recorded as “had no effect on dexmedetomidine-induced analgesia in control animals”. Also, in the series with Male Sprague-Dawley rats [2] (NO2-arginine 4 μg/kg/hr alone (data not shown)), the “effect on tail flick latency when administered alone” value is “had no effect on tail flick latency”. The “effect of co-administration on analgesic tolerance to dexmedetomidine” value in the series on Male Sprague-Dawley rats [2] (NO2-arginine 4 μg/kg/hr with dexmedetomidine 10 μg/kg/hr for 14 days (FIG. 6C)) is on record as “has no effect on analgesic tolerance; also recorded: had no effect on analgesic tolerance”; with Male Sprague-Dawley rats [2] (NO2-arginine 8 μg/kg/hr with dexmedetomidine 10 μg/kg/hr for 14 days (FIG. 6C)) it was “also ineffective; also recorded: ineffective at reversing tolerance”. In addition, the “effect of acute administration on expression of tolerance to the analgesic action of dexmedetomidine” value in the series with Male Sprague-Dawley rats [2] (NO2-arginine 1 and 20 mg/kg i.p., dexmedetomidine 100 μg/kg i.p., tolerant rats (FIG. 6B)) is listed as “does not reverse dexmedetomidine tolerance; also recorded: did not reverse the expression of tolerance”. The “effect of acute administration on the analgesic action of dexmedetomidine” value with Male Sprague-Dawley rats [2] (NO2-arginine i.p. 15 min prior to dexmedetomidine 50 μg/kg i.p., naïve rats (FIG. 6A)) is given as “has no effect on the analgesic action of dexmedetomidine; also recorded: did not affect the analgesic action of dexmedetomidine”.
As to `[Xe]` [xenon], the “reduction of NMDA-activated currents” value with NMDA receptor was “up to 60%”. Also, the “concentration of xenon dissolved or dispersed in lipid emulsion” value in series [3] is listed as 0.2 to 10 ml per ml of emulsion.
`CNC1(c2ccccc2Cl)CCCCC1=O` (stereo not shown) [ketamine]: the “effect on dexmedetomidine sedation when administered alone” value in the series on Male Sprague-Dawley rats [1] (ketamine 400 μg/kg/hr alone (FIG. 3C)) was “without having an effect on dexmedetomidine sedation; also recorded: had no effect by itself”. Besides, the “effect of co-administration on tolerance to the hypnotic (sedative) effect of dexmedetomidine” value with Male Sprague-Dawley rats [1] (ketamine 400 μg/kg/hr concurrently with dexmedetomidine, challenge 150 μg/kg i.p., pumps left in place (FIG. 3C)) is given as “reverses tolerance; also recorded: did reverse tolerance”. Moreover, the “effect of acute administration on established tolerance to the hypnotic effect of dexmedetomidine” value in the series with Male Sprague-Dawley rats [1] (ketamine 10 or 20 mg/kg acute, tolerant rats (FIG. 3B)) is reported as “does not block dexmedetomidine-induced tolerance; also recorded: could not reverse tolerance”. In addition, the “effect of acute administration on dexmedetomidine-induced sleep time” value was “has no effect on the sleep time” in the series with Male Sprague-Dawley rats [1] (ketamine acute, dexmedetomidine 150 μg/kg i.p. (FIG. 3A)) and “did not affect the sleep time” with Male Sprague-Dawley rats [1] (ketamine acute, dexmedetomidine 150 μg/kg i.p. (FIG. 3A), listed as Ketamine).
For `Cc1cccc([C@H](C)c2cnc[nH]2)c1C` [dexmedetomidine], the “hypnotic effect of dexmedetomidine (duration of loss of righting reflex), dose response” value with Male Sprague-Dawley rats [1] (rats chronically treated with dexmedetomidine 5 μg/kg/h for 7 days, even when large doses were given (FIG. 1A)) is recorded as “almost completely absent”; with Male Sprague-Dawley rats [1] (sham treated animals, challenge doses (FIG. 1A)), “dose dependently increased”. Besides, the “dose of maximal efficacy of hypnotic action (biphasic dose response curve)” value in the series with Male Sprague-Dawley rats [4] is “around 300 μg/kg”. In addition, in the series with Male Sprague-Dawley rats [2] (setting [5]), the “maximal analgesic effect of dexmedetomidine” value is on record as “reduced the maximal effect”. Also, the “shift of the analgesic dose response curve for dexmedetomidine” value in the series on Male Sprague-Dawley rats [2] (setting [5]) was “about 2 fold”.
As for `C[C@]12N[C@H](Cc3ccccc31)c1ccccc12` [MK-801], the “effect on dexmedetomidine-induced sleep time” value with Male Sprague-Dawley rats [1] (MK-801 50 μg/kg acute) was “has no effect on dexmedetomidine-induced sleep time”. Also, the “effect of acute administration on dexmedetomidine-induced sleep time” value with Male Sprague-Dawley rats [1] (MK-801 10-200 μg/kg, naïve animals, dexmedetomidine 100 μg/kg i.p. (FIG. 2A)) is “did not affect sleep time”. The results for the “effect of co-administration on development of tolerance to the hypnotic effect of dexmedetomidine” value with Male Sprague-Dawley rats [1] and in the series with Male Sprague-Dawley rats [1] (listed as dizolcipine) were “blocks tolerance; also recorded: able to prevent the development of tolerance” and “blocked”, respectively. The “effect of acute administration on expression of tolerance to the hypnotic effect of dexmedetomidine” value is reported as “does not block dexmedetomidine-induced tolerance; also recorded: did not affect the expression of tolerance” in the series with Male Sprague-Dawley rats [1] (MK-801 acute, rats already tolerant (dexmedetomidine 5 μg/kg/h, 7 days) (FIG. 2B)) and “does not prevent the expression of tolerance” in the series on Male Sprague-Dawley rats [1] (MK-801 acute, rats already tolerant (dexmedetomidine 5 μg/kg/h, 7 days) (FIG. 2B), listed as dizolcipine). In addition, the “effect of acute low dose on expression of tolerance to the analgesic effect of dexmedetomidine” value with Male Sprague-Dawley rats [2] (MK-801 50 μg/kg acute, rats tolerant after dexmedetomidine 10 μg/kg/hr for 14 days (FIG. 4B)) was “does not prevent the expression of tolerance; also recorded: did not reverse the expression of tolerance”. For the same molecule, in the series with Male Sprague-Dawley rats [2] (MK-801 400 μg/kg acute, control animals), the “effect of higher dose on the analgesic action of dexmedetomidine” value is reported as “antagonized the analgesic action of dexmedetomidine”. In addition, the “effect of acute higher dose on tolerance to the analgesic effect of dexmedetomidine” value in the series on Male Sprague-Dawley rats [2] (MK-801 400 μg/kg acute, tolerant animals) is “unable to reverse tolerance”. For the same molecule, the “effect of acute administration on the analgesic action of dexmedetomidine” value in the series with Male Sprague-Dawley rats [2] (MK-801 15 min before dexmedetomidine 50 μg/kg, naive rats (FIG. 4A)) was “suppressed its analgesic action at the two highest doses”. Moreover, the “effect of co-administration on development of analgesic tolerance to dexmedetomidine” value in the series on Male Sprague-Dawley rats [2] (MK-801 (0.4 μg/kg/hr as printed; maximum dose tolerated by the rat) with dexmedetomidine 10 μg/kg/hr for 14 days (FIG. 4C)) is recorded as “does not prevent the development of tolerance; also recorded: had no effect on the development of analgesic tolerance”. The “effect of low dose on dexmedetomidine-induced analgesia” value in the series on Male Sprague-Dawley rats [2] (low dose of MK-801 (50 μg/kg) acute, control animals (FIG. 4B)) is listed as “did not have any affect on dexmedetomidine-induced analgesia”. For the same molecule, the “effect on tail flick latency / dexmedetomidine's analgesic action when administered alone” value with Male Sprague-Dawley rats [2] (same chronic dose of MK-801 alone (FIG. 4C)) is on record as “does not affect dexmedetomidine's analgesic action; also recorded: had no effect on tail flick latency”.
